# Reference: ChEMBL document CHEMBL4000174, “Synthesis and antitumor activity of novel substituted uracil-1'(N)-acetic acid ester derivatives of 20(S)-camptothecins” (Eur J Med Chem, 2017)
# Activity calls are given as the source filed them. No cut-off for these calls is given here.
# How the values were obtained:
# A549 [1] = test: Induction of apoptosis in human A549 cells assessed as late apoptotic cells at 8 nM after 24 hrs by Annexin V-FITC/propidium iodide staining based flow cytometry (reference value: 2.47%); assay type: functional
# Mus musculus [2] = test: Toxicity in Kunming mouse implanted with mouse H22 cells assessed as body weight at 100 mg/kg, ip administered once (reference value: 31.1 g); assay type: organism-based; settings: in vivo
# Mus musculus [3] = test: Toxicity in BALB/c nude mouse xenografted with human BGC823 cells assessed as body weight at 60 mg/kg, ip administered once in a week for two weeks starting from 6 days post tumor transplantation and measured every 3 days during compound dosing for 15 days (reference value: 23.6 g); assay type: organism-based; settings: in vivo, 360 h
# A549 [4] = test: Cell cycle arrest in human A549 cells assessed as accumulation at G0/G1 phase at 75 nM after 24 hrs by propidium iodide staining based flow cytometry (reference value: 58.84%); assay type: functional
# A549 [5] = test: Induction of apoptosis in human A549 cells assessed as necrotic cells at 25 nM after 24 hrs by Annexin V-FITC/propidium iodide staining based flow cytometry (reference value: 7.62%); assay type: functional
# A549 [6] = test: Induction of apoptosis in human A549 cells assessed as increase in Bax protein level at 8 to 75 nM by Western blot method; assay type: functional, cell-based
# Mus musculus [7] = test: Toxicity in BALB/c nude mouse xenografted with human BGC823 cells assessed as body weight at 30 mg/kg, ip administered once in a week for two weeks starting from 6 days post tumor transplantation and measured every 3 days during compound dosing for 15 days (reference value: 23.6 g); assay type: organism-based; settings: in vivo, 360 h
# A549 [8] = test: Cell cycle arrest in human A549 cells assessed as accumulation at S phase at 8 nM after 24 hrs by propidium iodide staining based flow cytometry (reference value: 32.80%); assay type: functional
# A549 [9] = test: Induction of apoptosis in human A549 cells assessed as membrane blebbing after 24 hrs by phase contrast microscopy; assay type: functional, cell-based
# A549 [10] = test: Induction of apoptosis in human A549 cells assessed as increase in cleaved caspase-3 level at 8 to 75 nM by Western blot method; assay type: functional, cell-based
# Mus musculus [11] = test: Antitumor activity in BALB/c nude mouse xenografted with human Bel7402 cells assessed as tumor volume at 60 mg/kg, ip administered once in a week for two weeks starting from 6 days post tumor transplantation measured every 3 days for 21 days (reference value: […]); settings: in vivo, 504 h
# A549 [12] = test: Induction of apoptosis in human A549 cells assessed as early apoptotic cells at 8 nM after 24 hrs by Annexin V-FITC/propidium iodide staining based flow cytometry (reference value: 0.50%); assay type: functional
# A549 [13] = test: Induction of apoptosis in human A549 cells assessed as early apoptotic cells at 75 nM after 24 hrs by Annexin V-FITC/propidium iodide staining based flow cytometry (reference value: 0.50%); assay type: functional
# Escherichia coli = test: Inhibition of Escherichia coli topoisomerase 1-mediated relaxation of supercoiled Pcmv-6 plasmid DNA at 30 to 50 uM after 30 mins by ethidium bromide staining based agarose gel electrophoretic analysis
# H22 [14] = test: Antitumor activity against mouse H22 cells implanted in Kunming mouse assessed as tumor growth inhibition at 40 mg/kg, ip administered on day 1 and day 5 relative to control relative to control; assay type: functional; settings: read-out: TGI
# Bel-7402 [15] = test: Antiproliferative activity against human Bel7402 cells after 96 hrs by MTT assay; assay type: functional, cell-based; settings: Bel-7402, 96 h
# A549 [16] = test: Induction of apoptosis in human A549 cells assessed as late apoptotic cells at 25 nM after 24 hrs by Annexin V-FITC/propidium iodide staining based flow cytometry (reference value: 2.47%); assay type: functional
# A549 [17] = test: Cell cycle arrest in human A549 cells assessed as accumulation at S phase at 25 nM after 24 hrs by propidium iodide staining based flow cytometry (reference value: 32.80%); assay type: functional
# BGC-823 [18] = test: Antitumor activity against human BGC823 cells xenografted in BALB/c nude mouse assessed as tumor growth inhibition at 30 mg/kg, ip administered once in a week for two weeks starting from 6 days post tumor transplantation measured 27 to 30 days post tumor transplantation relative to control; assay type: functional; settings: BGC-823, ip, read-out: TGI
# Mus musculus [19] = test: Toxicity in BALB/c nude mouse xenografted with human Bel7402 cells assessed as body weight at 60 mg/kg, ip aadministered once in a week for two weeks starting from 6 days post tumor transplantation measured every 3 days for 21 days (reference value: 14.5 g); assay type: organism-based; settings: in vivo, 504 h
# Bel-7402 [20] = test: Antitumor activity against human Bel7402 cells xenografted in BALB/c nude mouse assessed as tumor volume at 30 mg/kg, ip administered once in a week for two weeks starting from 6 days post tumor transplantation measured 27 to 30 days post tumor transplantation relative to control; assay type: functional
# Mus musculus [21] = test: Toxicity in BALB/c nude mouse xenografted with human Bel7402 cells assessed as body weight at 30 mg/kg, ip administered once in a week for two weeks starting from 6 days post tumor transplantation measured every 3 days for 21 days (reference value: 14.5 g); assay type: organism-based; settings: in vivo, 504 h
# A549 [22] = test: Cell cycle arrest in human A549 cells assessed as accumulation at G0/G1 phase at 25 nM after 24 hrs by propidium iodide staining based flow cytometry (reference value: 58.84%); assay type: functional
# BGC-823 [23] = test: Antitumor activity against human BGC823 cells xenografted in BALB/c nude mouse assessed as tumor volume at 60 mg/kg, ip administered once in a week for two weeks starting from 6 days post tumor transplantation measured 27 to 30 days post tumor transplantation relative to control; assay type: functional
# A549 [24] = test: Cell cycle arrest in human A549 cells assessed as accumulation at G2/M phase at 75 nM after 24 hrs by propidium iodide staining based flow cytometry (reference value: 8.36%); assay type: functional
# BGC-823 [25] = test: Antitumor activity against human BGC823 cells xenografted in BALB/c nude mouse assessed as tumor growth inhibition at 60 mg/kg, ip administered once in a week for two weeks starting from 6 days post tumor transplantation measured 27 to 30 days post tumor transplantation relative to control; assay type: functional; settings: BGC-823, ip, read-out: TGI
# Bel-7402 [26] = test: Antitumor activity against human Bel7402 cells xenografted in BALB/c nude mouse assessed as tumor volume at 60 mg/kg, ip administered once in a week for two weeks starting from 6 days post tumor transplantation measured 27 to 30 days post tumor transplantation relative to control; assay type: functional
# A549 [27] = test: Induction of apoptosis in human A549 cells assessed as viable cells at 8 nM after 24 hrs by Annexin V-FITC/propidium iodide staining based flow cytometry (reference value: 89.41%); assay type: functional; settings: A549, 24 h, read-out: Activity
# Bel-7402 [28] = test: Antitumor activity against human Bel7402 cells xenografted in BALB/c nude mouse assessed as tumor growth inhibition at 30 mg/kg, ip administered once in a week for two weeks starting from 6 days post tumor transplantation measured 27 to 30 days post tumor transplantation relative to control; assay type: functional; settings: Bel-7402, ip, read-out: TGI
# A549 [29] = test: Induction of apoptosis in human A549 cells assessed as viable cells at 75 nM after 24 hrs by Annexin V-FITC/propidium iodide staining based flow cytometry (reference value: 89.41%); assay type: functional; settings: A549, 24 h, read-out: Activity
# H22 [30] = test: Antitumor activity against mouse H22 cells implanted in Kunming mouse assessed as tumor growth inhibition at 100 mg/kg, ip administered once relative to control; assay type: functional; settings: read-out: TGI
structure (smiles),measurement,setting,value
CCc1c2c(nc3ccccc13)-c1cc3c(c(=O)n1C2)COC(=O)[C@@]3(CC)OC(=O)Cn1cc(F)c(=O)[nH]c1=O,Activity,A549 [1],13.06%
same,Activity,Mus musculus [2],29.8 g
same,Activity,Mus musculus [3],21.9 g
same,Activity,A549 [4],2.17%
same,Activity,A549 [5],9.9%
same,Activity,A549 [6],Active
same,Activity,Mus musculus [7],19.1 g
same,Activity,A549 [8],36.5%
same,Activity,A549 [9],Dose-dependent effect
same,Activity,A549 [10],Active
same,tumor volume,Mus musculus [11],127 mm³
same,Activity,A549 [12],3%
same,Activity,A549 [13],23.7%
same,inhibition,Escherichia coli,Active
same,inhibition in vivo at 40 mg/kg,H22 [14],57.5%
same,IC50,Bel-7402 [15],14 nM
same,Activity,A549 [16],26.6%
same,Activity,A549 [17],21.17%
same,inhibition in vivo at 30 mg/kg,BGC-823 [18],89.7%
same,Activity,Mus musculus [19],Non-Toxic
same,T/C,Bel-7402 [20],41.17%
same,Activity,Mus musculus [21],Non-Toxic
same,Activity,A549 [22],7.09%
same,T/C,BGC-823 [23],5.54%
same,Activity,A549 [24],67.07%
same,inhibition in vivo at 60 mg/kg,BGC-823 [25],96%
same,T/C,Bel-7402 [26],24.53%
same,viability at 0.008 µM,A549 [27],80.2%
same,inhibition in vivo at 30 mg/kg,Bel-7402 [28],62.6%
same,viability at 0.075 µM,A549 [29],30.6%
same,inhibition in vivo at 100 mg/kg,H22 [30],39.1%
